These results are taken from patent US20210283198A1, “METHOD FOR TREATING AND/OR PREVENTING COCCIDIOSIS” (priority 2020, published 2021).

The test system of this test is Eimeria tenella oocyst. Kind of test: In vitro sporulation of the coccidia oocyst in 2% K2Cr2O7. The note with it: 100 ppm, 25° C., 10^4 oocysts/mL, mean ± SD (n = 3). The test is classed as cell-based. The method, then: Intestinal samples from naturally infected broilers were obtained from poultry farms. Un-sporulated oocysts were obtained from the cecal contents of broilers at day 8 post-infection. Oocyst sporulation was conducted in an aqueous solution of 2% potassium dichromate (K2Cr2O7) with or without surfactin standard or the Bacillus licheniformis-fermented product-derived surfactin C-form for 72 h at 25° C. (10^4 oocysts/mL). Sporulated and non-sporulated oocysts were counted and the percentage of sporulation was estimated by counting the number of sporulated oocysts in a total of 100 oocysts by microscopic observation. Second-generation merozoites were collected from ceca at 110 h post-infection from chickens that had been inoculated with 1×10^5 sporulated oocysts per bird. The merozoites (10^4/mL) were treated with or without surfactin standard or the Bacillus licheniformis-fermented product-derived surfactin C-form for 1 h at 37° C. Three groups of merozoites were prepared, including: (1) a control group comprising 10^4/ml merozoites without surfactin; (2) an experimental group comprising 10^4/ml merozoites treated with 100 ppm surfactin standard; and (3) an experimental group comprising 10^4/ml merozoites treated with the 100 ppm Bacillus licheniformis-fermented product-derived surfactin C-form. After incubation, propidium iodide was added to each well and then stained at 37° C. for 30 min in the dark. The stained samples were examined under a confocal laser-scanning microscope (ZEISS LSM800, Jena, Germany). The percentage of death of merozoite was determined by counting the number of dead merozoite in a total of 100 merozoites. The Eimeria sporozoites from vaccine were treated with different surfacitn for 1 h at 37° C. (10^6 sporozoites/mL). The sporozoites were fixed with 2.5% glutaraldehyde in 50 mM potassium phosphate buffer (pH 6.8) overnight at 4° C., and then washed three times with 50 mM potassium phosphate buffer (pH 6.8). Dehydration was performed in different concentrations of ethanol (35-100%) for 10 mM each and the samples were dried in a critical point drier (CPD 030, Bal-Tec AG, Balzers, Liechtenstein). Specimens were coated under vacuum with gold:palladium (60:40) in a sputter coater (Bal-Tec AG, Balzers, Liechtenstein), and examined using a scanning electron microscope (JSM-6300, JEOL Ltd., Tokyo, JAPAN). […]

Marks after values point to notes of the source that are not given here. *1 amine or outer side, *2 acyl side, *3 side chain or, on linkers, in order; H or OH if unused. Where a SMILES comes first, the peptide text is derived from it. Bridges are numbered along the chain shown (N, C = ends). [ ]: non-standard residue; d: D form. X1 = CC(C)CCCCCCCCC[C@H](CC(=O)[*:1])O[*:2]

As for `CC(C)CCCCCCCCC[C@@H]1CC(=O)N[C@@H](CCC(=O)O)C(=O)N[C@@H](CC(C)C)C(=O)N[C@H](CC(C)C)C(=O)N[C@@H](C(C)C)C(=O)N[C@@H](CC(=O)O)C(=O)N[C@H](CC(C)C)C(=O)N[C@@H](CC(C)C)C(=O)O1` [surfactin standard, surfactin] (EL[dL]VD[dL]L; linker N-C via X1), the “Sporulation of the coccidia oocyst (%)” value (12 h) amounted to 0%, the “Sporulation of the coccidia oocyst (%)” value (24 h) is listed as 0%, the “Sporulation of the coccidia oocyst (%)” value (48 h) is listed as 0^b % and the “Sporulation of the coccidia oocyst (%)” value (72 h) is 0^b %.
